The values below come from patent US7368462B1, “Melanin concentrating hormone antagonists” (The Procter & Gamble Company, priority 2004, dated 2008).

In general, IC50 refers to the point on the concentration scale where inhibition reaches its midpoint. Low values mean greater potency in that assay, high ones weaker potency in that assay.

SMILES strings stand for the structures.

One assay has as its target MCH1R (UniProt Q99705). The assay can be described thus: MCH1R competition binding assay. The procedure:
In vitro binding and function assays are performed on membranes derived from cells or tissues expressing endogenous MCH1R. Competition binding assays are performed to identify high affinity compounds. Briefly, either radiolabeled or europium labeled MCH with varying concentrations of competitor compound which are incubated with membranes expressing the receptor. Rat brain membrane or cell lines, including but not limited to human Kelly neuroblastoma cells, A-431 epidermoid cells, and rat PC-12 cells are known to express endogenous MCH1R and are used in the assay. Binding is allowed to proceed until equilibrium is reached then bound labeled MCH is separated from free MCH by capturing membranes onto a filter. The filters are washed to remove loosely associated MCH and labeled MCH is quantified. Data is analyzed and IC50 and Ki are calculated to determine compound affinity.

For the next assay, the target named is T1, 5-HT2c receptor (Homo sapiens, UniProt P28335).
T1 sequence (P28335 33-458): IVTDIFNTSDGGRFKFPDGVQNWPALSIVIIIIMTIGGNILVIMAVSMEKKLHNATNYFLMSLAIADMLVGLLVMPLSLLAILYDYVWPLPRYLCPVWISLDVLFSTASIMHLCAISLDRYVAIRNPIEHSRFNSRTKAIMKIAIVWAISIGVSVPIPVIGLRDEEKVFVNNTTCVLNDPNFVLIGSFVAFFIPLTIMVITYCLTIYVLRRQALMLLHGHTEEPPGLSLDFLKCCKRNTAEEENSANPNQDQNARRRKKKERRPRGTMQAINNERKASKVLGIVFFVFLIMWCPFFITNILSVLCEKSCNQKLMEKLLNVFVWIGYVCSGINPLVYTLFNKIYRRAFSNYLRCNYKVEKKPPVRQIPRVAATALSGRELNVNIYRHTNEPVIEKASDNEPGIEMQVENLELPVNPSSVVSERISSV
Briefly: 5-HT2c receptor binding assay (3H-mesulergine competition). The method, then: Binding assays for serotonin receptor, 5-HT2c receptor MCH antagonist compounds are evaluated for binding to the serotonin 5-HT2c receptor to determine receptor selectivity. Binding activity is assessed using a competitive assay with ^3H-mesulergine (Perkin Elmer), a 5-HT2c selective ligand, on membrane containing the 5-HT2c receptor. Briefly, 1 nM ^3H-mesulergine and varying concentrations of the compound are incubated with 5-HT2c receptor membranes, following an incubation period, the membranes are washed and ^3H-mesulergine bound to membranes is measured in a liquid scintillation counter. The amount of bound ^3H-mesulergine at the varying concentration of competitor compound is used to derive the affinity (Ki) of the compound for the 5-HT2c receptor. 5-HT2c receptor containing membranes are readily available from several companies including Perkin-Elmer and Euroscreen.

As to `CN(C)Cc1ccc2c(CNC(=O)c3ccc(-c4ccc(F)cc4)cc3)cccc2c1` [4′-Fluoro-biphenyl-4-carboxylic acid (6-dimethylaminomethyl-naphthalen-1-ylmethyl)-amide], the IC50 on MCH1R was found to be 12 nM; at 5-HT2c receptor, 1130 nM.
`CCN(CC)Cc1ccc2c(CN(C)C(=O)c3ccc(-c4ccc(C(F)(F)F)cc4)cc3)cccc2c1` [4′-Trifluoromethyl-biphenyl-4-carboxylic acid (6-diethylaminomethyl-naphthalen-1-ylmethyl)-methyl-amide]: the values for the IC50 at MCH1R and at 5-HT2c receptor were 70 nM and 2060 nM, respectively.
